Test systems include UACC-257; MDA-MB-231; U-251; SK-MEL-5; UO-31; MOLT-4; NCI-H522; SNB-75; IGROV-1; COLO 205; HCT-15; SR; KM12; SK-OV-3; ACHN; NCI/ADR-RES; MDA-MB-435; SF-539; HCT-116; Malme-3M.
What all share (assay): NCI tumour cell line growth inhibition, 48 h

Consider eight compounds from ChEMBL document CHEMBL1201862, “PubChem BioAssay data set” (2004).

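Growth conditions: 96-well plates. Treatment: test compound, 48 hours, 5 concentrations. Analysis: linear interpolation between bracketing concentrations; unreached endpoints set to highest concentration. Here, GI50 denotes the concentration required for 50% inhibition of growth.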 The source made the active and inactive calls. Rule as the data show it: active = GI50 up to about 1.1 µM and inactive = higher. Where only a bound is given, the exact number is not on record here.

With `CC1=C(C(=O)OCc2ccncc2)C(C2=C(C)SCCS2)C(C(=O)OCc2ccncc2)=C(C)N1`, the GI50 was 17.1 µM (inactive) with UACC-257; 26.9 µM (inactive) in the test on MDA-MB-231; 16.7 µM (inactive) with U-251; 15.3 µM (inactive) in the test with SK-MEL-5; 17.5 µM (inactive) in the test with UO-31; 15.3 µM (inactive) in the test with MOLT-4. For the same compound, the GI50 is 22.8 µM (inactive) in the test with NCI-H522; 15.8 µM (inactive) in the test with SNB-75; 62.5 µM (inactive) with IGROV-1; 22.2 µM (inactive) in the test with COLO 205; 25.6 µM in the test on HCT-15; 33.6 µM (inactive) in the test on SR. Moreover, the GI50 was 21.3 µM (inactive) with KM12; 26.6 µM (inactive) in the test with SK-OV-3; 34.5 µM (inactive) in the test on ACHN; 37.4 µM (inactive) with NCI/ADR-RES; 17.8 µM (inactive) with MDA-MB-435; 16.4 µM (inactive) in the test on SF-539. In the test with HCT-116, the GI50 is 15.1 µM (inactive).
As for `O=C(Nc1nc(C23CC4CC(CC(C4)C2)C3)cs1)c1cc2c(ccc3ccccc32)oc1=O`, the GI50 with UACC-257, in the test with MDA-MB-231, in the test with U-251, with SK-MEL-5, in the test on UO-31 and in the test with MOLT-4 was > 100 µM (inactive) each time. Further, the GI50 in the test on NCI-H522 is > 100 µM (inactive); with IGROV-1, > 100 µM (inactive); with COLO 205, > 100 µM (inactive); in the test with HCT-15 it was greater than 100 µM; with SR, > 100 µM (inactive); in the test with KM12, > 100 µM (inactive). For the same compound, the GI50 in the test on ACHN, in the test on NCI/ADR-RES, in the test with MDA-MB-435, in the test with SF-539, with Malme-3M and with HCT-116 was > 100 µM (inactive) in each case.
With `S=C1CC(c2ccc(Cl)cc2)Sc2ccccc2N1` (stereo not given), the GI50 was > 100 µM (inactive) in the test on UACC-257; 30.4 µM (inactive) in the test on MDA-MB-231; 41.3 µM (inactive) in the test on U-251; 25.3 µM (inactive) in the test with SK-MEL-5; > 100 µM (inactive) in the test on UO-31; > 10 µM (inactive) in the test on MOLT-4. Besides, the GI50 in the test with NCI-H522 was 21.6 µM (inactive); with SNB-75, > 10 µM (inactive); with IGROV-1, 43.4 µM (inactive); in the test with COLO 205 it was 71.9 µM (inactive); in the test on HCT-15 it was 90.8 µM; in the test with SR, 33.3 µM (inactive). The GI50 in the test with KM12 was 45.7 µM (inactive); with SK-OV-3, 22.5 µM (inactive); in the test with ACHN, 71.8 µM (inactive); in the test on NCI/ADR-RES it was 32.4 µM (inactive); in the test with MDA-MB-435, 87.1 µM (inactive); with Malme-3M it was 53.2 µM (inactive). Moreover, in the test on HCT-116, the GI50 is 19.1 µM (inactive).
`CCOC(=O)c1csc(C(CSCc2ccc(OC)cc2)N2C(=O)c3ccccc3C2=O)n1` (stereo not given): the GI50 with UACC-257 was > 100 µM (inactive); in the test on MDA-MB-231, > 100 µM (inactive); with U-251 it was > 100 µM (inactive); in the test on SK-MEL-5, > 100 µM (inactive); in the test on UO-31, > 100 µM (inactive); with MOLT-4, 31.5 µM (inactive). In addition, the GI50 in the test with NCI-H522 is 23.5 µM (inactive); with IGROV-1 it was > 100 µM (inactive); with COLO 205, > 100 µM (inactive); in the test with HCT-15 it was 62.7 µM; with SR, 26.5 µM (inactive); with KM12, > 100 µM (inactive). Further, the GI50 in the test with SK-OV-3 was > 100 µM (inactive); with ACHN it was > 100 µM (inactive); in the test with NCI/ADR-RES, > 100 µM (inactive); in the test with MDA-MB-435, 54.8 µM (inactive); in the test on SF-539, > 100 µM (inactive); with Malme-3M, > 100 µM (inactive). Further, in the test with HCT-116, the GI50 is 49.1 µM (inactive).
Consider `CC[N+]1(C)CCC(O)(c2ccc(C)cc2)C(C(=O)c2ccc(C)cc2)C1` (stereo not given), for which the GI50 in the test on UACC-257 was 62.5 µM (inactive); in the test with MDA-MB-231, 26.7 µM (inactive); in the test with U-251, > 100 µM (inactive); in the test with SK-MEL-5, > 100 µM (inactive); in the test on UO-31 it was > 100 µM (inactive); with MOLT-4, 23.6 µM (inactive). Further, the GI50 is 23.7 µM (inactive) in the test on NCI-H522; > 100 µM (inactive) in the test on IGROV-1; 25.5 µM (inactive) in the test on COLO 205; 21.7 µM with HCT-15; 16.2 µM (inactive) in the test on SR; > 100 µM (inactive) with KM12. The GI50 with SK-OV-3 was > 100 µM (inactive); in the test with ACHN it was 23.3 µM (inactive); in the test on NCI/ADR-RES it was > 100 µM (inactive); with MDA-MB-435, 69.2 µM (inactive); in the test on SF-539, 66.8 µM (inactive); in the test on Malme-3M, 26.1 µM (inactive). Further, the GI50 in the test on HCT-116 was 51.8 µM (inactive).
Consider `O=C(N/N=C\c1c(O)ccc2ccccc12)c1ccncc1`, for which the GI50 with UACC-257 was 1.22 µM (inactive); in the test on MDA-MB-231, 0.254 µM (active); in the test with U-251, 0.29 µM (active); in the test with SK-MEL-5, 0.341 µM (active); with UO-31, 0.356 µM (active); in the test with MOLT-4, 0.0313 µM (active). In addition, the GI50 with NCI-H522 was 0.638 µM (active); in the test with SNB-75 it was 2.75 µM (inactive); with IGROV-1, 0.148 µM (active); with COLO 205, 0.82 µM (active); with HCT-15 it was 0.0991 µM; in the test with SR it was 0.558 µM (active). The GI50 is 2.7 µM (inactive) with KM12; 0.693 µM (active) in the test on SK-OV-3; 0.206 µM (active) in the test on ACHN; 0.562 µM (active) in the test with NCI/ADR-RES; 1.65 µM (inactive) in the test with MDA-MB-435; 0.675 µM (active) in the test on SF-539. For the same compound, the GI50 with HCT-116 is 0.191 µM (active).
On to `O=C1CCSCCC(=O)Nc2ccccc2N1`, for which the GI50 in the test on UACC-257, in the test with MDA-MB-231, in the test on U-251, in the test with SK-MEL-5, in the test with UO-31 and in the test with MOLT-4 was > 100 µM (inactive) throughout. Also, the GI50 in the test with NCI-H522 is > 100 µM (inactive); in the test on IGROV-1, > 100 µM (inactive); in the test with COLO 205 it was > 100 µM (inactive); in the test with HCT-15, greater than 100 µM; with SR, > 100 µM (inactive); in the test on KM12, > 100 µM (inactive). For the same compound, the GI50 in the test with SK-OV-3, in the test on ACHN, in the test on NCI/ADR-RES, in the test with MDA-MB-435, in the test on SF-539 and in the test on Malme-3M was > 100 µM (inactive) throughout. For the same compound, the GI50 with HCT-116 was > 100 µM (inactive).
Take `CNc1cccc2c1C(C)C[C@]1(C)C(=O)Nc3ccccc3[C@H]21` (stereo not given in full): the GI50 was 13.4 µM (inactive) with UACC-257; 20.6 µM (inactive) with MDA-MB-231; 43.8 µM (inactive) in the test on SK-MEL-5; 23.1 µM (inactive) with UO-31; 32.8 µM (inactive) in the test on MOLT-4; 20.5 µM (inactive) in the test on NCI-H522. The GI50 with SNB-75 is 12.1 µM (inactive); in the test on IGROV-1 it was 35.8 µM (inactive); in the test on COLO 205, 29.8 µM (inactive); in the test on HCT-15, 39.4 µM; with SR it was 23.8 µM (inactive); in the test with KM12, 26.1 µM (inactive). Besides, the GI50 in the test with ACHN is 23.1 µM (inactive); in the test with NCI/ADR-RES it was 23.1 µM (inactive); in the test with MDA-MB-435 it was 23.5 µM (inactive); with SF-539 it was 42 µM (inactive); in the test on Malme-3M it was 19.5 µM (inactive); with HCT-116 it was 18.7 µM (inactive).
